From the NIST ThermoML archive (doi:10.1021/je049582g)

Experiment: cn = amount concentration of the nth substance listed, in mol/dm3
Conditions: 298 K, 101 kPa, Liquid, holographic interferometric technique

Question: For `CC[C@H](C)[C@H](N)C(=O)O` [2-amino-3-methylpentanoic acid] + O, which binary diffusion coefficient (c1 = 0.0101) is on record?
Answer: The binary diffusion coefficient was 7.61e-10 m2/s.

Question: And the binary diffusion coefficient (c1 = 0.0203)?
Answer: Its binary diffusion coefficient is 7.5e-10 m2/s.

Question: And the binary diffusion coefficient (c1 = 0.0301)?
Answer: The binary diffusion coefficient was 7.39e-10 m2/s.

Question: And the binary diffusion coefficient (c1 = 0.0399)?
Answer: Its binary diffusion coefficient is 7.32e-10 m2/s.

Question: What about the binary diffusion coefficient (c1 = 0.05) of the same compound?
Answer: Its binary diffusion coefficient is 7.25e-10 m2/s.

Question: Which binary diffusion coefficient (c1 = 0.1057) does the source give for `NCC(=O)O` [2-aminoacetic acid] + O here?
Answer: Its binary diffusion coefficient is 1.04e-09 m2/s.

Question: And the binary diffusion coefficient (c1 = 0.3056)?
Answer: The binary diffusion coefficient was 1e-09 m2/s.

Question: And the binary diffusion coefficient (c1 = 0.5045)?
Answer: The binary diffusion coefficient was 9.73e-10 m2/s.

Question: What about the binary diffusion coefficient (c1 = 0.7064) of the same compound?
Answer: Its binary diffusion coefficient is 9.57e-10 m2/s.

Question: What about the binary diffusion coefficient (c1 = 0.9045) of the same compound?
Answer: Its binary diffusion coefficient is 9.43e-10 m2/s.

Question: What does the source list for `NCCC(=O)O` [3-aminopropanoic acid] + O?
Answer: binary diffusion coefficient (c1 = 0.0281): 9.36e-10 m2/s; binary diffusion coefficient (c1 = 0.0288): 9.35e-10 m2/s; binary diffusion coefficient (c1 = 0.0299): 9.34e-10 m2/s; binary diffusion coefficient (c1 = 0.0344): 9.33e-10 m2/s; binary diffusion coefficient (c1 = 0.111): 9.18e-10 m2/s; binary diffusion coefficient (c1 = 0.5605): 8.67e-10 m2/s; binary diffusion coefficient (c1 = 0.5886): 8.68e-10 m2/s; binary diffusion coefficient (c1 = 1.123): 8.18e-10 m2/s; binary diffusion coefficient (c1 = 1.766): 7.79e-10 m2/s; binary diffusion coefficient (c1 = 2.34): 7.52e-10 m2/s; binary diffusion coefficient (c1 = 2.665): 7.4e-10 m2/s; binary diffusion coefficient (c1 = 3.008): 7.2e-10 m2/s; binary diffusion coefficient (c1 = 3.931): 6.63e-10 m2/s; binary diffusion coefficient (c1 = 4.543): 6.25e-10 m2/s; binary diffusion coefficient (c1 = 5.419): 5.6e-10 m2/s

Question: For `CC[C@@H](N)C(=O)O` [(R)-(-)-α-aminobutyric acid] + O, which binary diffusion coefficient (c1 = 0.2) is on record?
Answer: The binary diffusion coefficient was 8e-10 m2/s.

Question: And the binary diffusion coefficient (c1 = 0.4)?
Answer: The binary diffusion coefficient was 7.72e-10 m2/s.

Question: What about the binary diffusion coefficient (c1 = 0.6) of the same compound?
Answer: The binary diffusion coefficient was 7.45e-10 m2/s.

Question: What about the binary diffusion coefficient (c1 = 0.8) of the same compound?
Answer: The binary diffusion coefficient was 7.2e-10 m2/s.

Question: And the binary diffusion coefficient (c1 = 1)?
Answer: Its binary diffusion coefficient is 6.97e-10 m2/s.

Question: Which binary diffusion coefficient (c1 = 0.0997) does the source give for `C[C@H](N)C(=O)O` [(S)-2-aminopropanoic acid] + O here?
Answer: The binary diffusion coefficient was 9.04e-10 m2/s.

Question: What about the binary diffusion coefficient (c1 = 0.2996) of the same compound?
Answer: The binary diffusion coefficient was 8.59e-10 m2/s.

Question: And the binary diffusion coefficient (c1 = 0.4996)?
Answer: Its binary diffusion coefficient is 8.34e-10 m2/s.

Question: What about the binary diffusion coefficient (c1 = 0.7002) of the same compound?
Answer: Its binary diffusion coefficient is 8.12e-10 m2/s.

Question: What about the binary diffusion coefficient (c1 = 0.9006) of the same compound?
Answer: Its binary diffusion coefficient is 7.92e-10 m2/s.

Question: Which binary diffusion coefficient (c1 = 0.1) does the source give for `OC[C@H]1O[C@@](CO)(O[C@H]2O[C@H](CO)[C@@H](O)[C@H](O)[C@H]2O)[C@@H](O)[C@@H]1O` [D-sucrose] + O here?
Answer: Its binary diffusion coefficient is 4.89e-10 m2/s.

Question: And the binary diffusion coefficient (c1 = 0.3)?
Answer: The binary diffusion coefficient was 4.27e-10 m2/s.

Question: And the binary diffusion coefficient (c1 = 0.5)?
Answer: Its binary diffusion coefficient is 3.67e-10 m2/s.

Question: And the binary diffusion coefficient (c1 = 0.7)?
Answer: The binary diffusion coefficient was 3.06e-10 m2/s.

Question: With `CC(N)C(=O)O` (stereo not drawn) [DL-2-aminopropanoic acid] + O as the compound, how does the binary diffusion coefficient (c1 = 0.0271) read?
Answer: The binary diffusion coefficient was 9.11e-10 m2/s.

Question: What about the binary diffusion coefficient (c1 = 0.0281) of the same compound?
Answer: Its binary diffusion coefficient is 9.11e-10 m2/s.

Question: And the binary diffusion coefficient (c1 = 0.2233)?
Answer: Its binary diffusion coefficient is 8.84e-10 m2/s.

Question: What about the binary diffusion coefficient (c1 = 0.4374) of the same compound?
Answer: Its binary diffusion coefficient is 8.56e-10 m2/s.

Question: And the binary diffusion coefficient (c1 = 0.6786)?
Answer: The binary diffusion coefficient was 8.27e-10 m2/s.

Question: What about the binary diffusion coefficient (c1 = 0.9025) of the same compound?
Answer: The binary diffusion coefficient was 8.02e-10 m2/s.

Question: What about the binary diffusion coefficient (c1 = 1.195) of the same compound?
Answer: The binary diffusion coefficient was 7.72e-10 m2/s.

Question: And the binary diffusion coefficient (c1 = 1.541)?
Answer: The binary diffusion coefficient was 7.41e-10 m2/s.

Question: Which binary diffusion coefficient (c1 = 0.1002) does the source give for `N=C(N)NCCC[C@H](N)C(=O)O` [L-arginine] + O here?
Answer: The binary diffusion coefficient was 7.01e-10 m2/s.

Question: What about the binary diffusion coefficient (c1 = 0.2) of the same compound?
Answer: The binary diffusion coefficient was 6.61e-10 m2/s.

Question: And the binary diffusion coefficient (c1 = 0.2949)?
Answer: The binary diffusion coefficient was 6.36e-10 m2/s.

Question: And the binary diffusion coefficient (c1 = 0.4001)?
Answer: Its binary diffusion coefficient is 6.21e-10 m2/s.

Question: What about the binary diffusion coefficient (c1 = 0.5) of the same compound?
Answer: The binary diffusion coefficient was 6.04e-10 m2/s.

Question: Which binary diffusion coefficient (c1 = 0.01) does the source give for `N[C@@H](CO)C(=O)O` [L-serine] + O here?
Answer: The binary diffusion coefficient was 9.16e-10 m2/s.

Question: And the binary diffusion coefficient (c1 = 0.0301)?
Answer: The binary diffusion coefficient was 8.91e-10 m2/s.

Question: What about the binary diffusion coefficient (c1 = 0.05) of the same compound?
Answer: Its binary diffusion coefficient is 8.79e-10 m2/s.

Question: What about the binary diffusion coefficient (c1 = 0.07) of the same compound?
Answer: The binary diffusion coefficient was 8.71e-10 m2/s.

Question: And the binary diffusion coefficient (c1 = 0.0902)?
Answer: The binary diffusion coefficient was 8.65e-10 m2/s.

Question: Which binary diffusion coefficient (c1 = 0.1006) does the source give for `C[C@@H](O)[C@H](N)C(=O)O` [L-threonine] + O here?
Answer: Its binary diffusion coefficient is 7.86e-10 m2/s.

Question: What about the binary diffusion coefficient (c1 = 0.2002) of the same compound?
Answer: Its binary diffusion coefficient is 7.58e-10 m2/s.

Question: And the binary diffusion coefficient (c1 = 0.2994)?
Answer: Its binary diffusion coefficient is 7.42e-10 m2/s.

Question: And the binary diffusion coefficient (c1 = 0.4002)?
Answer: The binary diffusion coefficient was 7.25e-10 m2/s.

Question: What about the binary diffusion coefficient (c1 = 0.5003) of the same compound?
Answer: Its binary diffusion coefficient is 7.15e-10 m2/s.

Question: For `CC(C)[C@H](N)C(=O)O` [L-valine] + O, which binary diffusion coefficient (c1 = 0.1) is on record?
Answer: The binary diffusion coefficient was 7.12e-10 m2/s.

Question: What about the binary diffusion coefficient (c1 = 0.2) of the same compound?
Answer: The binary diffusion coefficient was 6.79e-10 m2/s.

Question: And the binary diffusion coefficient (c1 = 0.2999)?
Answer: Its binary diffusion coefficient is 6.55e-10 m2/s.

Question: What about the binary diffusion coefficient (c1 = 0.4) of the same compound?
Answer: Its binary diffusion coefficient is 6.45e-10 m2/s.

Question: And the binary diffusion coefficient (c1 = 0.5001)?
Answer: The binary diffusion coefficient was 6.33e-10 m2/s.

Question: For `[Cl-].[K+]` [potassium chloride] + O, which binary diffusion coefficient (c1 = 0.33) is on record?
Answer: The binary diffusion coefficient was 1.83e-10 m2/s.

Question: For `NC(N)=O` [urea] + O, which binary diffusion coefficient (c1 = 0.125) is on record?
Answer: Its binary diffusion coefficient is 1.37e-09 m2/s.

Question: What about the binary diffusion coefficient (c1 = 0.2475) of the same compound?
Answer: Its binary diffusion coefficient is 1.36e-09 m2/s.

Question: What about the binary diffusion coefficient (c1 = 0.5) of the same compound?
Answer: The binary diffusion coefficient was 1.34e-09 m2/s.

Question: And the binary diffusion coefficient (c1 = 0.75)?
Answer: The binary diffusion coefficient was 1.33e-09 m2/s.

Question: And the binary diffusion coefficient (c1 = 0.9782)?
Answer: Its binary diffusion coefficient is 1.31e-09 m2/s.

Question: And the binary diffusion coefficient (c1 = 1)?
Answer: The binary diffusion coefficient was 1.31e-09 m2/s.

Question: And the binary diffusion coefficient (c1 = 1.5)?
Answer: Its binary diffusion coefficient is 1.27e-09 m2/s.

Question: And the binary diffusion coefficient (c1 = 2)?
Answer: Its binary diffusion coefficient is 1.24e-09 m2/s.

Question: What about the binary diffusion coefficient (c1 = 3) of the same compound?
Answer: Its binary diffusion coefficient is 1.19e-09 m2/s.

Question: And the binary diffusion coefficient (c1 = 4)?
Answer: Its binary diffusion coefficient is 1.14e-09 m2/s.
